Experimental data published in US11384055B2 (BIOMARIN PHARMACEUTICAL INC., priority 2017, dated 2022).

Molecular target: T1, Human GO (Homo sapiens, UniProt Q9UJM8)
T1 construct: purchased Novus Biologicals NBP1-72412
T1 sequence (Q9UJM8 1-370): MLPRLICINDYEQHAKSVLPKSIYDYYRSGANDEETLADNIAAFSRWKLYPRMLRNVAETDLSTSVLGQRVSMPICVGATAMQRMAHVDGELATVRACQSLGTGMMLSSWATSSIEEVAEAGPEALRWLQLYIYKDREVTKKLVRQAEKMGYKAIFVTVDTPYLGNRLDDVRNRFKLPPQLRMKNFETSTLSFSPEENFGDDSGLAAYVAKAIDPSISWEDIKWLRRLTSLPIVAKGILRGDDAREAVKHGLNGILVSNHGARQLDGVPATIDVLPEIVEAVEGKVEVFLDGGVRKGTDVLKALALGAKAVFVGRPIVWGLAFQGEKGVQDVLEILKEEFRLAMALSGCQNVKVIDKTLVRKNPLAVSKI
Assay: GO enzymatic assay (coupled fluorescence/HRP assay, glycolate substrate)
Format: biochemical
Conditions: Table 4; read-out: Range (range of IC50 values calculated from the enzymatic assays)
In short: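 Human GO incubated with glycolate substrate in 50 mM potassium phosphate, pH 7, with varying inhibitor concentrations. Activity read by coupled HRP fluorescence. IC50 taken from variable-slope sigmoidal dose-response fits of percent inhibition relative to DMSO control.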

IC50, < 100 nM:
O=C(O)c1[nH]nnc1O[C@H]1CC[C@H](c2ccc(-c3ccnn3CC3(O)CCCCC3)cc2)CC1 [Example 471, 4-(((trans)-4-(4-(1-((1-hydroxycyclohexyl)methyl)-1H-pyrazol-5-yl)phenyl)cyclohexyl)oxy)-1H-1,2,3-triazole-5-carboxylic acid 2,2,2-trifluoroacetate]
NCCCOc1ccc([C@H]2CC[C@H](Oc3nn[nH]c3C(=O)O)CC2)cc1 [Example 472, 4-(((trans)-4-(4-(3-aminopropoxy)phenyl)cyclohexyl)oxy)-1H-1,2,3-triazole-5-carboxylic acid 2,2,2-trifluoroacetate]
CCC(CC)c1cc(-c2ccc([C@H]3CC[C@H](Oc4nn[nH]c4C(=O)O)CC3)cc2)[nH]n1 [Example 473, 4-(((trans)-4-(4-(3-(pentan-3-yl)-1H-pyrazol-5-yl)phenyl)cyclohexyl)oxy)-1H-1,2,3-triazole-5-carboxylic acid]
CNCCCOc1ccc([C@H]2CC[C@H](Oc3nn[nH]c3C(=O)O)CC2)cc1 [Example 474, 4-(((trans)-4-(4-(3-(methylamino)propoxy)phenyl)cyclohexyl)oxy)-1H-1,2,3-triazole-5-carboxylic acid 2,2,2-trifluoroacetate]
CN(C)CCCOc1ccc([C@H]2CC[C@H](Oc3nn[nH]c3C(=O)O)CC2)cc1 [Example 478, 4-(((trans)-4-(4-(3-(dimethylamino)propoxy)phenyl)cyclohexyl)oxy)-1H-1,2,3-triazole-5-carboxylic acid 2,2,2-trifluoroacetate]
CCC(O)(CC)Cn1nccc1-c1ccc([C@H]2CC[C@H](Oc3nn[nH]c3C(=O)O)CC2)cc1 [Example 479, 4-(((trans)-4-(4-(1-(2-ethyl-2-hydroxybutyl)-1H-pyrazol-5-yl)phenyl)cyclohexyl)oxy)-1H-1,2,3-triazole-5-carboxylic acid]
CC(C)(O)Cn1nccc1-c1ccc([C@H]2CC[C@H](Oc3nn[nH]c3C(=O)O)CC2)cc1 [Example 480, 4-(((trans)-4-(4-(1-(2-hydroxy-2-methylpropyl)-1H-pyrazol-5-yl)phenyl)cyclohexyl)oxy)-1H-1,2,3-triazole-5-carboxylic acid]
O=C(O)c1[nH]nnc1O[C@H]1CC[C@H](c2ccc(Cl)c(C3CCC3)c2)CC1 [Example 482, 4-(((trans)-4-(4-chloro-3-cyclobutylphenyl)cyclohexyl)oxy)-1H-1,2,3-triazole-5-carboxylic acid]
O=C(O)c1[nH]nnc1O[C@H]1CC[C@H](c2ccc(OC(F)(F)F)c(C3CCC3)c2)CC1 [Example 484, 4-(((trans)-4-(3-cyclobutyl-4-(trifluoromethoxy)phenyl)cyclohexyl)oxy)-1H-1,2,3-triazole-5-carboxylic acid]
COCCc1cc(-c2ccc([C@H]3CC[C@H](Oc4nn[nH]c4C(=O)O)CC3)cc2)[nH]n1 [Example 485, 4-(((trans)-4-(4-(3-(2-methoxyethyl)-1H-pyrazol-5-yl)phenyl)cyclohexyl)oxy)-1H-1,2,3-triazole-5-carboxylic acid 2,2,2-trifluoroacetate]
O=C(O)c1[nH]nnc1CO[C@H]1CC[C@H](c2cc(Cl)cc(Cl)c2)CC1 [Example 486, 4-((((trans)-4-(3,5-dichlorophenyl)cyclohexyl)oxy)methyl)-1H-1,2,3-triazole-5-carboxylic acid]
